In this experiment the target is recombinant human UAE (Homo sapiens (Human), UniProt P22314). In words: Ubiquitin Activating Enzyme (UAE) HTRF Assay. The conditions noted are these: read-out: % inhibition @0.111 μM.

SMILES strings stand for the structures.

Chain of recombinant human UAE (P22314 whole entry): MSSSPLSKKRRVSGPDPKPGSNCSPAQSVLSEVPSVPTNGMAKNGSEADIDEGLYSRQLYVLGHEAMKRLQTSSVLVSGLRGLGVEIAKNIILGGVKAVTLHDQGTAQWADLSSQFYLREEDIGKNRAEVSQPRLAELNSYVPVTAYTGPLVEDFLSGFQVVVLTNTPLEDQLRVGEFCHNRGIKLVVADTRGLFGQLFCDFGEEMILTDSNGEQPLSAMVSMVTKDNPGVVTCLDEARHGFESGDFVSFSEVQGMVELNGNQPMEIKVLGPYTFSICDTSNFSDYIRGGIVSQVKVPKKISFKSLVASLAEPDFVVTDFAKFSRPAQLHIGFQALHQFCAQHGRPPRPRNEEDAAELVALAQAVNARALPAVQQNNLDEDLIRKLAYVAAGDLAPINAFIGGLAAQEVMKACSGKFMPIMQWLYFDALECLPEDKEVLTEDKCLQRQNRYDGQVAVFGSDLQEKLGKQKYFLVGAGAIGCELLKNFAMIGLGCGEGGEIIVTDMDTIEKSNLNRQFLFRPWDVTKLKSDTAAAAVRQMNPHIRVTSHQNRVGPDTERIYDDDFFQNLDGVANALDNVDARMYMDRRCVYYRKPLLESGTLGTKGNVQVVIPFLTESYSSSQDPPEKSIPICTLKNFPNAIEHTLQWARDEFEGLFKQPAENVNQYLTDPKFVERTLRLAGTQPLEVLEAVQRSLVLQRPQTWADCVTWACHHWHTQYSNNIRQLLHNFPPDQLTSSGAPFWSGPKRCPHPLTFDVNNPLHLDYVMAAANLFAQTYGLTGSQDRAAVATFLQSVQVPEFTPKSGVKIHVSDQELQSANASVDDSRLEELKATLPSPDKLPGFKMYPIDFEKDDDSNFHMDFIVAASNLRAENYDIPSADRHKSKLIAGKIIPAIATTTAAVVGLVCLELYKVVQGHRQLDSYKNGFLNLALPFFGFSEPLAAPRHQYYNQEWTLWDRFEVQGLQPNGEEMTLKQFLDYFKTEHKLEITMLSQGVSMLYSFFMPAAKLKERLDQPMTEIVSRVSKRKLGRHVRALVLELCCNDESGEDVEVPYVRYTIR
Procedure: After incubation for 120 minutes, quantification of the FRET is performed on the Pherostar (BMG).
For compounds whose values are marked with an asterisk (*), mouse UAE was used. For all other compounds, human UAE was used.

For `COc1ccc(C(C)(C)C)cc1-c1cc2nccc(N[C@@H]3C[C@H](COS(N)(=O)=O)[C@@H](O)[C@H]3O)n2n1` (relative stereo) [Compound I-063, (rac)-((1R,2R,3S,4R)-4-{[2-(5-tert-butyl-2-methoxyphenyl)pyrazolo[1,5-a]pyrimidin-7-yl]amino}-2,3-dihydroxycyclopentyl)methyl rel-sulfamate], the inhibition (as a rule, the change of the read-out against control, counted positive when it falls) at 0.111 µM is 100%. For `NS(=O)(=O)OC[C@H]1C[C@@H](Nc2ccnc3cc(-c4ccc5c(c4)C(=O)c4ccccc4-5)nn23)[C@H](O)[C@@H]1O` (relative stereo) [Compound I-085, (rac)-((1R,2R,3S,4R)-2,3-dihydroxy-4-(2-(9-oxo-9H-fluoren-2-yl)pyrazolo[1,5-a]pyrimidin-7-ylamino)cyclopentyl)methyl rel-sulfamate] the value was 99%.

Take `NS(=O)(=O)OC[C@H]1C[C@@H](Nc2ccnc3cc(-c4ccc5oc6ccccc6c5c4)nn23)[C@H](O)[C@@H]1O` (relative stereo) [Compound I-019, (rac)-((1R,2R,3S,4R)-4-(2-(dibenzo[b,d]furan-2-yl)pyrazolo[1,5-a]pyrimidin-7-ylamino)-2,3-dihydroxycyclopentyl)methyl rel-sulfamate]: the inhibition at 0.111 µM is 100%.

On to `COc1ccc(C(F)(F)F)cc1-c1cc2nccc(N[C@@H]3C[C@H](COS(N)(=O)=O)[C@@H](O)[C@H]3O)n2n1` (relative stereo) [Compound I-065, (rac)-((1R,2R,3S,4R)-2,3-Dihydroxy-4-((2-(2-methoxy-5-(trifluoromethyl)phenyl)-pyrazolo[1,5-a]pyrimidin-7-yl)amino)cyclopentyl)methyl rel-sulfamate], for which the inhibition at 0.111 µM was determined as 100%.

As for `NS(=O)(=O)OC[C@H]1C[C@@H](Nc2ccnc3cc(-c4c[nH]c5ccccc45)nn23)[C@H](O)[C@@H]1O` (relative stereo) [Compound I-032, (rac)-[(1R,2R,3S,4R)-2,3-dihydroxy-4-{[2-(1H-indol-3-yl)pyrazolo[1,5-a]pyrimidin-7-yl]amino}cyclopentyl]methyl rel-sulfamate], the inhibition at 0.111 µM was 100%. Consider `NS(=O)(=O)OC[C@H]1C[C@@H](Nc2c(Cl)cnc3cc(-c4cccc(SC(F)(F)F)c4)nn23)[C@H](O)[C@@H]1O` [Compound I-125, (s.e.)-{(1R,2R,3S,4R)-4-[(6-chloro-2-{3-[(trifluoromethyl)sulfanyl]phenyl}pyrazolo[1,5-a]pyrimidin-7-yl)amino]-2,3-dihydroxycyclopentyl}methyl sulfamate], for which the inhibition at 0.111 µM was 50%. The figure for `CC(C)(C)c1cccc(-c2cc3nccc(N[C@@H]4C[C@H](COS(N)(=O)=O)[C@@H](O)[C@H]4O)n3n2)c1` (relative stereo) [Compound I-015, (rac)-((1R,2R,3S,4R)-4-((2-(3-(tert-Butyl)phenyl)pyrazolo[1,5-a]pyrimidin-7-yl)amino)-2,3-dihydroxycyclopentyl)methyl rel-sulfamate] is 100%. For `NS(=O)(=O)OC[C@H]1C[C@@H](Nc2ccnc3cc(-c4cccc(-c5ccccn5)c4)nn23)[C@H](O)[C@@H]1O` (relative stereo) [Compound I-036, (rac)-((1R,2R,3S,4R)-2,3-Dihydroxy-4-((2-(3-(pyridin-2-yl)phenyl)pyrazolo[1,5-a]pyrimidin-7-yl)amino)cyclopentyl)methyl rel-sulfamate] the value was 100%.

Take `NS(=O)(=O)OC[C@H]1C[C@@H](Nc2ccnc3cc(-c4cc5ccccc5o4)nn23)[C@H](O)[C@@H]1O` (relative stereo) [Compound I-086, (rac)-((1R,2R,3S,4R)-4-(2-(benzofuran-2-yl)pyrazolo[1,5-a]pyrimidin-7-ylamino)-2,3-dihydroxycyclopentyl)methyl rel-sulfamate]: the inhibition at 0.111 µM turned out to be 99%. For `CC1(C)CCc2ccc(-c3cc4nccc(N[C@@H]5C[C@H](COS(N)(=O)=O)[C@@H](O)[C@H]5O)n4n3)cc21` (relative stereo) [Compound I-041, (rac)-((1R,2R,3S,4R)-4-(2-(3,3-dimethyl-2,3-dihydro-1H-inden-5-yl)pyrazolo[1,5-a]pyrimidin-7-ylamino)-2,3-dihydroxycyclopentyl)methyl rel-sulfamate] the value was 99%; for `COc1ccccc1-c1cc2nccc(N[C@@H]3C[C@H](COS(N)(=O)=O)[C@@H](O)[C@H]3O)n2n1` (relative stereo) [Compound I-072, (rac)-((1R,2R,3S,4R)-2,3-dihydroxy-4-(2-(2-methoxyphenyl)pyrazolo[1,5-a]pyrimidin-7-ylamino)cyclopentyl)methyl rel-sulfamate], 100%; for `NS(=O)(=O)OC[C@H]1C[C@@H](Nc2ccnc3cc(-c4c(Cl)cc(Cl)c5ccccc45)nn23)[C@H](O)[C@@H]1O` [Compound I-117, (s.e.)-((1R,2R,3S,4R)-4-(2-(2,4-dichloronaphthalen-1-yl)pyrazolo[1,5-a]pyrimidin-7-ylamino)-2,3-dihydroxycyclopentyl)methyl sulfamate], 92%. For `NS(=O)(=O)OC[C@H]1C[C@@H](Nc2ccnc3cc(-c4cncc(-c5ccccc5)n4)nn23)[C@H](O)[C@@H]1O` (relative stereo) [Compound I-121, (rac)-((1R,2R,3S,4R)-2,3-dihydroxy-4-{[2-(6-phenylpyrazin-2-yl)pyrazolo[1,5-a]pyrimidin-7-yl]aminolcyclopentyl)methylrel-sulfamate] the value was 100%; for `NS(=O)(=O)OC[C@H]1C[C@@H](Nc2ccnc3cc(-c4cccc5c4sc4ccccc45)nn23)[C@H](O)[C@@H]1O` (relative stereo) [Compound I-056, (rac)-((1R,2R,3S,4R)-4-((2-(Dibenzo[b,d]thiophen-4-yl)pyrazolo[1,5-a]pyrimidin-7-yl)amino)-2,3-dihydroxycyclopentyl)methyl rel-sulfamate], 100%; for `Cc1cnc2cc(-c3ccccc3)nn2c1N[C@@H]1C[C@H](COS(N)(=O)=O)[C@@H](O)[C@H]1O` (relative stereo) [Compound I-089, (rac)-{(1R,2R,3S,4R)-2,3-dihydroxy-4-[(6-methyl-2-phenylpyrazolo[1,5-a]pyrimidin-7-yl)amino]cyclopentyl}methyl rel-sulfamate], 27%. For `Cn1cc(-c2cccc(-c3cc4nccc(N[C@@H]5C[C@H](COS(N)(=O)=O)[C@@H](O)[C@H]5O)n4n3)c2)cn1` (relative stereo) [Compound I-122, (rac)-[(1R,2R,3S,4R)-2,3-dihydroxy-4-({2-[3-(1-methyl-1H-pyrazol-4-yl)phenyl]pyrazolo[1,5-a]pyrimidin-7-yl}amino)cyclopentyl]methyl rel-sulfamate], the inhibition at 0.111 µM is 97%. In the case of `CN(C)c1ccc(-c2cc3nccc(N[C@@H]4C[C@H](COS(N)(=O)=O)[C@@H](O)[C@H]4O)n3n2)c2ccccc12` [Compound I-107, (s.e.)-((1R,2R,3S,4R)-4-(2-(4-(dimethylamino)naphthalen-1-yl)pyrazolo[1,5-a]pyrimidin-7-ylamino)-2,3-dihydroxycyclopentyl)methyl sulfamate], the inhibition at 0.111 µM was 100%. With `CC(C)(C)c1cccc(-c2cc3nccc(N[C@@H]4C[C@H](COS(N)(=O)=O)[C@@H](O)[C@H]4O)n3n2)n1` (relative stereo) [Compound I-052, (rac)-((1R,2R,3S,4R)-4-(2-(6-tert-butylpyridin-2-yl)pyrazolo[1,5-a]pyrimidin-7-ylamino)-2,3-dihydroxycyclopentyl)methyl rel-sulfamate], the inhibition at 0.111 µM amounted to 100%. On to `NS(=O)(=O)OC[C@H]1C[C@@H](Nc2ccnc3cc(-c4c[nH]c5cc(Cl)ccc45)nn23)[C@H](O)[C@@H]1O` (relative stereo) [Compound I-055, (rac)-[(1R,2R,3S,4R)-4-{[2-(6-chloro-1H-indol-3-yl)pyrazolo[1,5-a]pyrimidin-7-yl]amino}-2,3-dihydroxycyclopentyl]methyl rel-sulfamate], for which the inhibition at 0.111 µM turned out to be 100%. For `Cc1ccc(Cl)cc1-c1cc2nccc(N[C@@H]3C[C@H](COS(N)(=O)=O)[C@@H](O)[C@H]3O)n2n1` (relative stereo) [Compound I-021, (rac)-((1R,2R,3S,4R)-4-(2-(5-chloro-2-methylphenyl)pyrazolo[1,5-a]pyrimidin-7-ylamino)-2,3-dihydroxycyclopentyl)methyl rel-sulfamate] the value was 97%. With `NS(=O)(=O)OC[C@H]1C[C@@H](Nc2ccnc3cc(-c4cncc5ccccc45)nn23)[C@H](O)[C@@H]1O` (relative stereo) [Compound I-018, (rac)-((1R,2R,3S,4R)-2,3-dihydroxy-4-(2-(isoquinolin-4-yl)pyrazolo[1,5-a]pyrimidin-7-ylamino)cyclopentyl)methyl rel-sulfamate], the inhibition at 0.111 µM was 100%.

For `NS(=O)(=O)OC[C@H]1C[C@@H](Nc2cc(Cl)nc3cc(-c4ccc(Br)cc4)nn23)[C@H](O)[C@@H]1O` (relative stereo) [Compound I-008, (rac)-((1R,2R,3S,4R)-4-(2-(4-bromophenyl)-5-chloropyrazolo[1,5-a]pyrimidin-7-ylamino)-2,3-dihydroxycyclopentyl)methyl rel-sulfamate], the inhibition at 0.111 µM was found to be 28%. For `NS(=O)(=O)OC[C@H]1C[C@@H](Nc2ccnc3cc(-c4ccc5ccccc5c4)nn23)[C@H](O)[C@@H]1O` (relative stereo) [Compound I-016, (rac)-((1R,2R,3S,4R)-2,3-dihydroxy-4-(2-(naphthalen-2-yl)pyrazolo[1,5-a]pyrimidin-7-ylamino)cyclopentyl)methyl rel-sulfamate], the inhibition at 0.111 µM was found to be 99%. The figure for `NS(=O)(=O)OC[C@H]1C[C@@H](Nc2ccnc3cc(-c4cccc5cc(C(=O)O)ccc45)nn23)[C@H](O)[C@@H]1O` (relative stereo) [Compound I-099, (rac)-rel-5-[7-({(1R,2S,3R,4R)-2,3-dihydroxy-4-[(sulfamoyloxy)methyl]cyclopentyl}amino)pyrazolo[1,5-a]pyrimidin-2-yl]-2-naphthoic acid] is 100%.
